The source of these data is US4562196A, “2,4-Diaminopyridine as a pharmacologic agent” (Nelson Research & Development, priority 1984, dated 1985).

Data set [1] concerns neuromuscular transmission blocked with pancuronium bromide (rat phrenic nerve-hemidiaphragm). The experiment in a line: Rat hemidiaphragm: antagonism of pancuronium blockade in vitro. Set-up: species or system male Wistar rats. As to conditions: for EC50: 90% block by pancuronium bromide about 8×10^-6 M, 37° C., cumulative addition, read-out: EC50 (concentration that produces a 50% antagonism). As for the experimental part: Left hemidiaphragms with their phrenic nerves were removed from male Wistar rats weighing 280-320 g. and were mounted in an organ bath, containing Krebs solution, maintained at 37° C. and gassed with oxygen containing 5% CO2. The nerve was stimulated at a frequency of 0.1 Hz via electrodes with rectangular pulses of 0.3 ms duration and of a strength greater than that required to reproduce maximal twitch.

The test system of data set [2] is neuromuscular block by pancuronium bromide (sciatic nerve-anterior tibialis). As to the kind of experiment: Rat sciatic nerve-anterior tibialis preparation: antagonism of neuromuscular block in vivo. As to conditions: for ED50: Rattus norvegicus, iv, 10 min, read-out: ED50 (dose of drug producing a 50% antagonism), constant pancuronium infusion, 90-95% depression of twitch tension, cumulative dosing, 10 min interval. Details: species or system Rats. As for the experimental part:
This preparation is used to test the antagonistic action of aminopyridines against neuromuscular blocking agents in vivo. (Miller, Denissen, van der Pol, Agoston, Booy and Crul, J. Pharm. Pharmacol. 30, 699 (1978)).
Rats were administered a constant infusion of pancuronium bromide and when a constant block was achieved, one of the aminopyridines was administered. The ED50 's (dose of drug producing a 50% antagonism) were determined.
Rats (280-320 g) were anaesthetized with pentobarbital. Both jugular veins were cannulated for administration of drugs. A caratoid artery was cannulated for measurement and recording of arterial blood pressure. The trachea was intubated and ventilation controlled by means of a Braun air pump. The tendon of the left tibialist was freed, sectioned and connected to a force displacement transducer. The sciatic nerve was stimulated by supramaximal 0.1 Hz stimuli of 0.2 msec duration through a bipolar electrode. Twitch tension was recorded on a polygraph. The temperature of the rat was maintained at 37° C. with heating lamps. Pancuronium bromide was administered intravenously by continuous infusion until 90-95% depression of twitch tension was obtained. This infusion speed was maintained during the whole experiment. When the block was steady for at least 15 min one of the drugs was given cumulatively with 10 min interval.

For data set [3], the system named is mice. The experiment in a line: Acute toxicity (LD50), intraperitoneal, mice. The data set is classed as in vivo. As to conditions: from LD50 values. As for the experimental part:
Moreover, the LD50 values for intraperotoneal 4-AP and 3,4-DAP in mice are 10 mg./kg. and 20 mg./kg., respectively (Vohra, et al. J. Med. Chem 8, 296-304 (1965)). The LD50 dosage corresponds to a lethal dose in 50% of the animals treated. Thus, although not as toxic as 4-AP, 3,4-DAP suffers from the similar disadvantage of high toxicity at dosage levels near those that would be used in therapy.

In data set [4] the test system is mice. The note with it: i.p., Vohra et al., J. Med. Chem. 8, 296 (1965); cited from earlier work.
Another data set has as its system central nervous system. As to conditions: in vivo; cited from earlier work.
For data set [5] the following is noted: in vitro; vs 4-AP; cited from earlier work.
The conditions of data set [6]: 4-AP compared with 3,4-DAP; cited from earlier work.
A further data set deals with guinea-pig ileum. The experiment in a line: Ileum of the guinea pig: activity on smooth muscle. As to conditions: for pD2 (negative logarithm of the dose required to produce 50% of the maximum response): compared to maximal contraction by 2×10^-7 M carbochol, 37° C. As for the experimental part: This preparation tests the pharmacological activity on smooth muscle (Moritoki, Takei, Makomoto and Ishida, Arch. Int. Pharmacodyn. Ther. 232, 28 (1978).
The […] of the ileum was measured. This is compared to the maximal contraction caused by carbochol. From dose response curves the following pD2 values were determined (the pD2 value is the negative logarithm of the dose required to produce 50% of the maximum response).
Segments of guinea-pig ileum of 3 to 4 cm. length from 10 cm above the ileocaecal junction were used. The oral end of each segment was fixed to a hook and the distal end was connected to an isotonic transducer with a 1 g counterweight. The preparation was then immersed to an organ bath (25 ml) at 37° C. containing Krebs solution and bubbled with oxygen containing 5% CO2. After an equilibration time of about 1 hour, 2×10^-7 M carbochol was added to the bath for maximal contraction. After wash out (2×) the drugs were added cumulatively to the bath.

In a further data set the test system is rat heart. The experiment in a line: Isolated heart of the rat: positive inotropic action. Details: species or system male Wistar rats. The note with it: for changes in frequency or E.C.G.: same perfusion as L.V.P. As for the experimental part: This preparation evaluates the positive inotropic action of a drug (Koomen, van Gilst, Zimmerman and Noordwijk, Arch. Int. Pharmacodyn. Ther. 255, 212 (1982)).
Solutions of the aminopyridines were added to the perfusion solution of the rat heart. The left ventricular pressure (L.V.P.) was recorded in order to evalute the positive inotropic action. Frequency and E.C.G. were also monitored. Male Wistar rats (270-300 g) were anaesthetized with diethyl ether. After heparinization the hearts were quickly removed. Subsequently the heart was perfused according to the method of Langendorff. The perfusion fluid contained: NaCl 128 mM; KCl 4.7 mM; CaCl2 1.35 mM; MgCl2 1.05 mM; NaHPO4 0.42 mM; NaHCO3 20.2 mM; glucose 11.1 mM. The pH of the perfusion fluid after aeration with 95% O2 --5% CO2 was 7.35±0.05 (37° C.). L.V.P. was measured by means of a catheter inserted in the left ventricule and connected to a pressure transducer. A biopolar E.C.G. was obtained by means of two silver electrodes: one attached to the metal inflow cannula and the other to the ventricular apex. Coronary flow (volume of perfusion fluid per time unit) was measured by a microprocessor, which controlled the perfusion pressure by adjusting the peristaltic perfusion pump.

For data set [7], the system named is ketamine-xylazine narcosis. The experiment in a line: Antagonism of ketamine-xylazine narcosis (central effects). It is filed as in vivo, Rats. As for the experimental part: This is a method of testing the central effects of the aminopyridines.
Rats were anaesthetized with xylazine (0.05 ml of a 2% soln, s.c.) and ketamine (0.1 ml of a soln, i.p.). After 10 min. the aminopyridines (1 mg./kg) were administered, i.v. The time required for "full recovery" (i.e. turning over and crawling) was measured. Groups of 10 rats were used for each treatment.

Data set [8] has as its system potassium channel in axonal membranes. As to conditions: cited from earlier work.
Data set [9] concerns neuromuscular blocking drugs. The note with it: with neostigmine and pyridostigmine; cited from earlier work.

SMILES strings stand for the structures.

For the molecule `Nc1ccncc1N` [3,4-Diaminopyridine, 3,4-diaminopyridine], the EC50 in data set [1] was found to be 10 µM. Besides, in data set [2], the ED50 worked out at 0.25 mg/kg. The “toxicity relative to 2,4-DAP” value in the data set on mice [3] is recorded as “an order of magnitude more toxic than the compound of the present invention”. Besides, in the data set on mice [4], the LD50 is 20 mg/kg. Further, the “convulsions, central adverse effects” value with central nervous system is given as “tendency to cause convulsions”. In data set [5], the “peripheral and central action relative to 4-AP” value was “stronger peripheral action and less central action than 4-AP in vitro”. In data set [6], the “action in vivo” value is “almost the same”.
Regarding `Nc1ccnc(N)c1` [2,4-Diaminopyridine, 2,4-diaminopyridine], the EC50 in data set [1] stood at 15 µM. The “potency relative to 3,4-diaminopyridine” value in data set [1] (vs 3,4-diaminopyridine) is on record as “about the same potency as 3,4-diaminopyridine”; in data set [2] (vs 3,4-diaminopyridine), “about twice as potent as 3,4-diaminopyridine”. Besides, the “potency relative to 4-aminopyridine” value in [1] (vs 4-aminopyridine) is given as “about 3.5 times more potent”; with guinea-pig ileum (vs 4-aminopyridine), “slightly more potent than 4-aminopyridine”; in data set [2] (vs 4-aminopyridine) it was “about 3 times more potent”. Besides, the “pD2 (negative logarithm of the dose required to produce 50% of the maximum response)” value in the data set on guinea-pig ileum amounted to 4.52. The “increase of left ventricular pressure (L.V.P.)” value with rat heart (5×10^-6 mol/l to 10^-4 mol/l) was “up to 50%”. Besides, the “changes in frequency or E.C.G.” value in the data set with rat heart is reported as “No changes in frequency or E.C.G. were noted”. Also, the “effectiveness relative to 4-aminopyridine” value in the data set on rat heart (vs 4-aminopyridine) was “significantly more effective than 4-aminopyridine”. In addition, in data set [2], the ED50 amounted to 0.14 mg/kg. For the same molecule, the “recovery compared with saline controls” value in data set [7] (1 mg./kg, vs saline controls) is given as “did not differ significantly from controls receiving saline”. Further, in [7] (vs 3,4-diaminopyridine), the “central actions relative to 3,4-diaminopyridine” value is “somewhat weaker than those of 3,4-diaminopyridine”. Moreover, the “central actions relative to 4-aminopyridine” value in data set [7] (vs 4-aminopyridine) is “much weaker than those of 4-aminopyridine”. Moreover, the “convulsions, central adverse effects” value in the data set with central nervous system is recorded as “has not been shown to cause convulsions”.
`Nc1ccncc1` [4-Aminopyridine, 4-aminopyridine]: in data set [1], the EC50 is 55 µM. In addition, the “pD2 (negative logarithm of the dose required to produce 50% of the maximum response)” value in the data set with guinea-pig ileum came out at 4.30. For the same molecule, in the data set on rat heart (2×10^-5 to 1×10^-4 mol/l), the “increase of left ventricular pressure (L.V.P.)” value is “up to 40%”. In addition, the “changes in frequency or E.C.G.” value with rat heart is “No changes in frequency or E.C.G. were noted”. In addition, in [2], the ED50 was 0.45 mg/kg. Further, the “toxicity relative to 2,4-DAP” value with mice [3] was “an order of magnitude more toxic than the compound of the present invention”. The LD50 in the data set with mice [4] is 10 mg/kg. Besides, in the data set on central nervous system, the “convulsions, central adverse effects” value was “hypertension and convulsions at dosage levels only slightly exceeding the clinical dosage”. Further, the “action in vivo” value in [6] is recorded as “almost the same”. Besides, in data set [8], the “potassium channel blocking action” value was “potassium channel blocking action in axonal membranes”. Also, the “potentiation of anticholinesterase drugs” value in [9] is recorded as “potentiates anticholinesterase drugs”.

Broadly, the ED50 is the dose that gives a 50% effect, or the effect in half of the subjects. A word on the LD50: it is the dose expected to kill half of the subjects tested.
